In ChEMBL document CHEMBL3880409, “Pharmaceutical compositions and their methods of use” (2008) one finds Activity and fold change (FC) data, which are given here for 19 compounds.

Calls of active or inactive are those of the source.

Data set [1] has as its target T1, Neuronal acetylcholine receptor; alpha4/beta2 (Homo sapiens) (UniProt P17787+P43681). The data set is described as follows: Positive allosteric modulation at human alpha4beta2 nAChR expressed in HEK293 cells assessed as potentiation of (3R)-1-pyridin-3-ylpyrrolidin-3-amine-induced calcium flux preincubated for 5 mins followed by agonist addition measured for 3 to 5 mins by FLIPR assay relative to control. In kind it is cell-based. Details: concentration or dose not given beside the values.

Data set [2] concerns the target T1, Neuronal acetylcholine receptor; alpha4/beta2 (Homo sapiens). The data set can be described thus: Positive allosteric modulation at human alpha4beta2 nAChR expressed in HEK293 cells assessed as potentiation of 5-[(2R)-azetidin-2-ylmethoxy]-2-chloropyridine-induced calcium flux preincubated for 5 mins followed by agonist addition measured for 3 to 5 mins by FLIPR assay relative to control. Details: concentration or dose not given beside the values. In kind it is cell-based. (In general: Calcium assays in cells follow changes in intracellular calcium, usually with a dye or a luminescent sensor.)

Data set [3] shares this target. The data set can be described thus: Positive allosteric modulation at human alpha4beta2 nAChR expressed in HEK293 cells assessed as potentiation of ispronicline-induced calcium flux preincubated for 5 mins followed by agonist addition measured for 3 to 5 mins by FLIPR assay. In kind it is cell-based.
For data set [4] the target is unchanged. The data set is described as follows: Positive allosteric modulation at human alpha4beta2 nAChR expressed in HEK293 cells assessed as potentiation of varenicline-induced calcium flux preincubated for 5 mins followed by agonist addition measured for 3 to 5 mins by FLIPR assay. It is filed as cell-based.
Data set [5] has the same target. The data set is described as follows: Positive allosteric modulation at human alpha4beta2 nAChR expressed in HEK293 cells assessed as potentiation of (3R)-1-pyridin-3-ylpyrrolidin-3-amine-induced calcium flux at 10 uM preincubated for 5 mins followed by agonist addition measured for 3 to 5 mins by FLIPR assay relative to control. It is filed as cell-based.
Data set [6] shares this target. The data set is described as follows: Positive allosteric modulation at human alpha4beta2 nAChR expressed in HEK293 cells assessed as potentiation of 2-methyl-3-(2-(S)-pyrrolidinylmethoxy)pyridine-induced calcium flux preincubated for 5 mins followed by agonist addition measured for 3 to 5 mins by FLIPR assay. It is filed as cell-based.
In data set [7] the test system is Rattus norvegicus. The data set is described as follows: Potentiation of 3 umol/kg of (1S,5S)-3-(3,6-diaza-bicyclo[3.2.0]hept-3-yl)-quinoline-induced antinociceptive activity in Sprague-Dawley rat assessed as reversal of tight ligation of L5-L6 spinal nerves-mediated mechanical allodynia by measuring paw withdrawal threshold at 35 umol/kg, ip administered prior to agonist treatment measured after 30 mins. In kind it is functional.

For data set [8], the target named is T1, Neuronal acetylcholine receptor; alpha4/beta2 (Homo sapiens). The data set can be described thus: Positive allosteric modulation at human alpha4beta2 nAChR expressed in HEK293 cells assessed as potentiation of (1S,5S)-3-(3,6-diaza-bicyclo[3.2.0]hept-3-yl)-quinoline-induced calcium flux preincubated for 5 mins followed by agonist addition measured for 3 to 5 mins by FLIPR assay. In kind it is cell-based.

Data set [9] has as its system Rattus norvegicus. The data set can be described thus: Potentiation of 5-[(2R)-Azetidin-2-yl methoxy]-2-chloropyridine-induced antinociceptive activity in Sprague-Dawley rat assessed as reversal of tight ligation of L5-L6 spinal nerves-mediated mechanical allodynia by measuring increase in paw withdrawal threshold at 3.5 umol/kg, ip administered prior to agonist treatment measured after 30 mins. In kind it is functional, organism-based.

In data set [10] the test system is Rattus norvegicus. The data set is described as follows: Potentiation of 30 umol/kg of (1S,5S)-3-(3,6-diaza-bicyclo[3.2.0]hept-3-yl)-quinoline-induced antinociceptive activity in Sprague-Dawley rat assessed as reversal of tight ligation of L5-L6 spinal nerves-mediated mechanical allodynia by measuring paw withdrawal threshold at 35 umol/kg, ip administered prior to agonist treatment measured after 30 mins. In kind it is functional.

Data set [11] is described as follows: Toxicity in ferret assessed as emesis at 3.5 umol/kg after 30 mins measured for 90 mins. Details: species or system Mustela putorius furo. The following applies: in vivo, 1.5 h.
Data set [12] can be described thus: Toxicity in ferret assessed as emesis at 3.5 umol/kg administered 30 mins prior to agonist treatment measured for 90 mins in presence of 5-[(2R)-Azetidin-2-yl methoxy]-2-chloropyridine. Details: species or system Mustela putorius furo. The following applies: in vivo, 1.5 h.
In data set [13] the test system is Rattus norvegicus. The data set can be described thus: Potentiation of 5-[(2R)-Azetidin-2-yl methoxy]-2-chloropyridine-induced antinociceptive activity in Sprague-Dawley rat assessed as reversal of tight ligation of L5-L6 spinal nerves-mediated mechanical allodynia by measuring paw withdrawal threshold at 10 mg/kg, ip administered prior to agonist treatment measured after 30 mins (reference value: 24%). In kind it is functional.

Data set [14] addresses T1, Neuronal acetylcholine receptor; alpha4/beta2 (Homo sapiens). The data set is described as follows: Positive allosteric modulation at human alpha4beta2 nAChR expressed in HEK293 cells assessed as potentiation of 5-[(2R)-azetidin-2-ylmethoxy]-2-chloropyridine-induced calcium flux at 10 uM preincubated for 5 mins followed by agonist addition measured for 3 to 5 mins by FLIPR assay relative to control. In kind it is cell-based.

The subject of data set [15] is Rattus norvegicus. The data set is described as follows: Potentiation of 5-[(2R)-Azetidin-2-yl methoxy]-2-chloropyridine-induced antinociceptive activity in ip dosed Sprague-Dawley rat assessed as reversal of tight ligation of L5-L6 spinal nerves-mediated mechanical allodynia by measuring paw withdrawal threshold administered prior to agonist treatment measured after 30 mins. It is filed as functional.

The test system of data set [16] is Rattus norvegicus. The data set can be described thus: Antinociceptive activity in Sprague-Dawley rat assessed as reversal of tight ligation of L5-L6 spinal nerves-induced mechanical allodynia by measuring paw withdrawal threshold at 500 umol/kg, ip measured after 30 mins. In kind it is functional.

Turning to `CC(=O)c1cccc(-c2nc(-c3cccnc3)no2)c1`, the Activity in data set [1] and in data set [2] was 150 to 200% in each case.

In the case of `Fc1ccc(-c2nc(-c3cccnc3)no2)cc1F`, the Activity in [1] and in [2] was 200 to 400% in each case.

As for `Cc1ccc(-c2noc(-c3cccc(C#N)c3)n2)cn1`, the Activity in data set [1] and in [2] was 150 to 200% each time.

As to `N#Cc1cccc(-c2nc(-c3cccnc3)no2)c1`, the outcome (in [3]; in [4]; in data set [6]; in data set [8]; with Rattus norvegicus [9]) was Active. Moreover, the Activity in data set [5] is 200 to 400%; in the data set with Rattus norvegicus [7], 41%; in the data set with Rattus norvegicus [10], 56%; in [11], “Non-Toxic”; in [12], “Non-Toxic”; with Rattus norvegicus [13], 76%. For the same compound, the Activity in [14] was 200 to 400%; with Rattus norvegicus [15], “Dose-dependent effect”; in the data set with Rattus norvegicus [15] (record 2), 33 - 63%. Also, the fold change (FC) in data set [5] and in data set [14] was 10 to 100 throughout.

For `Fc1cccc(-c2nc(-c3cccnc3)no2)c1F`, the Activity in data set [1] and in data set [2] was 200 to 400% throughout.

`O=[N+]([O-])c1cccc(-c2nc(-c3cccnc3)no2)c1`: the Activity in [1] and in data set [2] was 200 to 400% throughout.

Turning to `N#Cc1cccc(-c2noc(-c3ccc(Cl)nc3)n2)c1`, the Activity in [1] and in data set [2] was 150 to 200% throughout.

With `N#Cc1ccc(-c2nc(-c3cccnc3)no2)cc1`, the Activity in data set [1] and in [2] was 150 to 200% throughout.

Take `c1cncc(-c2noc(-c3cccnc3)n2)c1`: the Activity in data set [1] and in [2] was 200 to 400% each time.

Turning to `c1cc(-c2noc(-c3cccnc3)n2)cc(-c2nnn[nH]2)c1`, the Activity in [1] and in data set [2] was 90 to 120% in each case.

Turning to `Oc1cncc(-c2nc(-c3cccnc3)no2)c1`, the Activity in [1] and in [2] was 90 to 120% each time.

As to `N#Cc1cccc(-c2noc(-c3cccnc3)n2)c1`, the Activity in [1] and in data set [2] was 200 to 400% each time.

As to `NS(=O)(=O)c1cccc(-c2nc(-c3cccnc3)no2)c1`, the Activity in data set [1] and in data set [2] was 200 to 400% in each case.

`O=c1ccc(-c2noc(-c3cccnc3)n2)c[nH]1`: the Activity in data set [1] and in data set [2] was 120 to 150% throughout.

Turning to `CS(=O)(=O)c1cccc(-c2nc(-c3cccnc3)no2)c1`, the Activity in [1] and in data set [2] was 120 to 150% throughout.

For `Clc1cc(-c2noc(-c3cccnc3)n2)ccn1`, the Activity in data set [1] and in data set [2] was 120 to 150% each time.

With `NCC1(CC(=O)O)CCCCC1` [GABAPENTIN], the Activity in the data set with Rattus norvegicus [16] is on record as 58%.

Consider `Brc1cncc(-c2nc(-c3cccnc3)no2)c1`, for which the Activity in data set [1] and in data set [2] was 120 to 150% throughout.

In the case of `N#Cc1cccc(-c2noc(-c3ccc(F)nc3)n2)c1`, the Activity in data set [1] and in data set [2] was 150 to 200% throughout.
